# Reference: patent US12286403B2, “Formulated and/or co-formulated liposome compositions containing IDO antagonist prodrugs useful in the treatment of cancer and methods thereof” (Nammi Therapeutics, Inc., priority 2019, dated 2025)
# Target: T1, IDO-1 (Homo sapiens, UniProt P14902)
# T1 construct: expressed in transfected cells; host or cells: HEK293 (hIDO1-HEK293 recombinant cells)
# Experiment: IDO-1 activity by kynurenine levels in hIDO1-HEK293 recombinant cells
# Assay type: cell-based
# Conditions: 10 uM, 24 hours
# Procedure: IDO-1 activity was measured indirectly using kynurenine levels using the following protocols. Briefly, hIDO1-HEK293 recombinant cells were plated overnight. The following day the cells were left untreated or treated with 10 uM of ID3, ID3-SA or LNP-ID3-SA for twenty-four (24) hours. The IDO-1 activity was measured by indirect measurement of kynurenine levels by analyzing absorption at 480 nm using IDO1 Cellular Activity QuickDetect™ kit (PBSBioscience, San Diego, CA).
# T1 sequence (P14902 whole entry): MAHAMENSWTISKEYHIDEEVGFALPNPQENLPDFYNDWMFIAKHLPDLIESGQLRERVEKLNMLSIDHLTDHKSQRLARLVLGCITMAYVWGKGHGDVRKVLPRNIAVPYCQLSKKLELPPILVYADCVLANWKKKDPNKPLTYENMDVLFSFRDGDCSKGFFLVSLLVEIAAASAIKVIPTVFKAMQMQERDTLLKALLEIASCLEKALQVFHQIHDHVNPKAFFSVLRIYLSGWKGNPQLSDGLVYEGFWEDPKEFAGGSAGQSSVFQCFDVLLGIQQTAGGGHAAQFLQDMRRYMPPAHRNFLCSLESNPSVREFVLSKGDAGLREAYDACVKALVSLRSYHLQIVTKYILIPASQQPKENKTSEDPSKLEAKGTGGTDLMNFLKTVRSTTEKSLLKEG
smiles,measurement,value
CCCCCCCCCCCCCCCCCC(=O)OCOC(=O)N(C(=O)[C@H](C)[C@H]1CC[C@@H](c2ccnc3ccc(F)cc32)CC1)c1ccc(Cl)cc1 [ID3-SA],"IDO-1 activity (kynurenine levels, absorption at 480 nm)",inhibited IDO-1 activity
